Assay results reported in patent EP0025288A1, “Derivatives of monic acid, processes for their preparation, compositions containing them and their preparation” (priority 1979, dated 1981).
Values after ≈ are worked out from the molar mass of the structure shown.

Key:
[1] = system: Staph aureus 152 (pen sens); assay: MIC, veterinary bacteria; format: cell-based; conditions: Staphylococcus aureus, veterinary bacteria (Table 2), read-out: MIC
Strep uberis SPU1 = assay: MIC, veterinary bacteria; format: cell-based; conditions: veterinary bacteria (Table 2), read-out: MIC
Past multocida PA1 = assay: MIC, veterinary bacteria; format: cell-based; conditions: veterinary bacteria (Table 2), read-out: MIC
E coli E1 = assay: MIC, veterinary bacteria; format: cell-based; conditions: veterinary bacteria (Table 2), read-out: MIC
[2] = system: M. hyosynoviae ATCC 25591; assay: MIC, anti-mycoplasmal, Friis broth solidified with 0.9% agarose; format: cell-based; conditions: 144 h, inoculum 10^3 to 10^5 C.F.U., 6 days incubation at 37°C, read-out: in vitro MIC
M. gallisepticum S6 = assay: as above; format: cell-based; conditions: Mycoplasmoides gallisepticum, 144 h, inoculum 10^3 to 10^5 C.F.U., 6 days incubation at 37°C, read-out: in vitro MIC
M. dispar NCTC 10125 = assay: as above; format: cell-based; conditions: 144 h, inoculum 10^3 to 10^5 C.F.U., 6 days incubation at 37°C, read-out: in vitro MIC
M. suipneumoniae TAM 6N = assay: as above; format: cell-based; conditions: Mesomycoplasma hyopneumoniae, TAM6N, 144 h, inoculum 10^3 to 10^5 C.F.U., 6 days incubation at 37°C, read-out: in vitro MIC
[3] = system: M. bovigenitalium ATCC 14173; assay: as above; format: cell-based; conditions: 144 h, inoculum 10^3 to 10^5 C.F.U., 6 days incubation at 37°C, read-out: in vitro MIC
E coli NCTC 10418 = assay: MIC, veterinary bacteria; format: cell-based; conditions: veterinary bacteria (Table 2), read-out: MIC
Past Haemolytica PA5 = assay: MIC, veterinary bacteria; format: cell-based; conditions: veterinary bacteria (Table 2), read-out: MIC
M. hyorhinis ATCC 23234 = assay: MIC, anti-mycoplasmal, Friis broth solidified with 0.9% agarose; format: cell-based; conditions: Mesomycoplasma hyorhinis, ATCC23234, 144 h, inoculum 10^3 to 10^5 C.F.U., 6 days incubation at 37°C, read-out: in vitro MIC
Strep dysgalaciae SPD1 = assay: MIC, veterinary bacteria; format: cell-based; conditions: veterinary bacteria (Table 2), read-out: MIC
[4] = system: Staph aureus B4 (pen resis); assay: MIC, veterinary bacteria; format: cell-based; conditions: Staphylococcus aureus, veterinary bacteria (Table 2), read-out: MIC
M. bovis NCTC 10131 = assay: microbe, parasite or virus in culture; format: cell-based; conditions: NCTC10131, 144 h, read-out: in vitro MIC
[5] = system: Corynebacterium pyogenes CY1; assay: MIC, veterinary bacteria; format: cell-based; conditions: veterinary bacteria (Table 2), read-out: MIC
M. suipneumoniae LABER = assay: MIC, anti-mycoplasmal, Friis broth solidified with 0.9% agarose; format: cell-based; conditions: Mesomycoplasma hyopneumoniae, 144 h, inoculum 10^3 to 10^5 C.F.U., 6 days incubation at 37°C, read-out: in vitro MIC
[6] = Serum binding by ultrafiltration; format: in vitro ADME, pig; conditions: pig, serum, compounds at 8 mcg/ml, microbiological assay (B. subtilis ATCC 6633), read-out: % bound to pig serum (converted)
Description: Serum binding was assessed by ultrafiltration of procine serum containing compounds at 8 mcg/ml, and through an Amicon CF50A ultrafiltration cone. Separation of ultrafiltrate was achieved by centrifugation.

S typhimurium S18 = assay: MIC, veterinary bacteria; format: cell-based; conditions: veterinary bacteria (Table 2), read-out: MIC
[7] = system: M. suipneumoniae PW/C/210; assay: MIC, anti-mycoplasmal, Friis broth solidified with 0.9% agarose; format: cell-based; conditions: Mesomycoplasma hyopneumoniae, 144 h, inoculum 10^3 to 10^5 C.F.U., 6 days incubation at 37°C, read-out: in vitro MIC
M. suipneumoniae HK(2) = assay: as above; format: cell-based; conditions: Mesomycoplasma hyopneumoniae, 144 h, inoculum 10^3 to 10^5 C.F.U., 6 days incubation at 37°C, read-out: in vitro MIC
Bord bronchiseptica BO8 = assay: MIC, veterinary bacteria; format: cell-based; conditions: veterinary bacteria (Table 2), read-out: MIC
[8] = system: M. suipneumoniae NCTC 10110; assay: MIC, anti-mycoplasmal, Friis broth solidified with 0.9% agarose; format: cell-based; conditions: Mesomycoplasma hyopneumoniae, NCTC10110, 144 h, inoculum 10^3 to 10^5 C.F.U., 6 days incubation at 37°C, read-out: in vitro MIC
Strep agalactiae SPA1 = assay: MIC, veterinary bacteria; format: cell-based; conditions: veterinary bacteria (Table 2), read-out: MIC
[9] = system: M. suipneumoniae J2206/183b; assay: MIC, anti-mycoplasmal, Friis broth solidified with 0.9% agarose; format: cell-based; conditions: Mesomycoplasma hyopneumoniae, 144 h, inoculum 10^3 to 10^5 C.F.U., 6 days incubation at 37°C, read-out: in vitro MIC
Past multocida PA2 = assay: MIC, veterinary bacteria; format: cell-based; conditions: veterinary bacteria (Table 2), read-out: MIC
M. suipneumoniae NB12 = assay: MIC, anti-mycoplasmal, Friis broth solidified with 0.9% agarose; format: cell-based; conditions: Mesomycoplasma hyopneumoniae, 144 h, inoculum 10^3 to 10^5 C.F.U., 6 days incubation at 37°C, read-out: in vitro MIC
M. hyorhinis ATCC 25021 = assay: as above; format: cell-based; conditions: Mesomycoplasma hyorhinis, ATCC25021, 144 h, inoculum 10^3 to 10^5 C.F.U., 6 days incubation at 37°C, read-out: in vitro MIC
M. pneumoniae ATCC 15492 = assay: as above; format: cell-based; conditions: Mycoplasmoides pneumoniae, ATCC15492, 144 h, inoculum 10^3 to 10^5 C.F.U., 6 days incubation at 37°C, read-out: in vitro MIC
M. suipneumoniae Str. 11 = assay: as above; format: cell-based; conditions: Mesomycoplasma hyopneumoniae, 144 h, inoculum 10^3 to 10^5 C.F.U., 6 days incubation at 37°C, read-out: in vitro MIC
M. suipneumoniae JF 435 = assay: as above; format: cell-based; conditions: Mesomycoplasma hyopneumoniae, JF435, 144 h, inoculum 10^3 to 10^5 C.F.U., 6 days incubation at 37°C, read-out: in vitro MIC
[10] = system: Strep suis (group D) SPS11; assay: MIC, veterinary bacteria; format: cell-based; conditions: veterinary bacteria (Table 2), read-out: MIC
M. suipneumoniae MS 16 = assay: MIC, anti-mycoplasmal, Friis broth solidified with 0.9% agarose; format: cell-based; conditions: Mesomycoplasma hyopneumoniae, MS16, 144 h, inoculum 10^3 to 10^5 C.F.U., 6 days incubation at 37°C, read-out: in vitro MIC
Staph aureus Oxford = assay: MIC, veterinary bacteria; format: cell-based; conditions: Staphylococcus aureus, veterinary bacteria (Table 2), read-out: MIC
S dublin S7 = assay: MIC, veterinary bacteria; format: cell-based; conditions: veterinary bacteria (Table 2), read-out: MIC
M. suipneumoniae UCD 1 = assay: MIC, anti-mycoplasmal, Friis broth solidified with 0.9% agarose; format: cell-based; conditions: Mesomycoplasma hyopneumoniae, UCD1, 144 h, inoculum 10^3 to 10^5 C.F.U., 6 days incubation at 37°C, read-out: in vitro MIC
[11] = system: Erysipelothrix rhusiopathiae NCTC 8163; assay: MIC, veterinary bacteria; format: cell-based; conditions: NCTC8163, veterinary bacteria (Table 2), read-out: MIC
Bord bronchisptica BO9 = assay: MIC, veterinary bacteria; format: cell-based; conditions: veterinary bacteria (Table 2), read-out: MIC
[12] = system: M. suipneumoniae ATCC 25095; assay: MIC, anti-mycoplasmal, Friis broth solidified with 0.9% agarose; format: cell-based; conditions: Mesomycoplasma hyopneumoniae, ATCC25095, 144 h, inoculum 10^3 to 10^5 C.F.U., 6 days incubation at 37°C, read-out: in vitro MIC

SMILES | MIC [1] [µg/mL] | MIC (Strep uberis SPU1) [µg/mL] | MIC (Past multocida PA1) [µg/mL] | MIC (E coli E1) [µg/mL] | MIC [2] [µg/mL] | MIC (M. gallisepticum S6) [µg/mL] | MIC (M. dispar NCTC 10125) [µg/mL] | MIC (M. suipneumoniae TAM 6N) [µg/mL] | MIC [3] [µg/mL] | MIC (E coli NCTC 10418) [µg/mL] | MIC (Past Haemolytica PA5) [µg/mL] | MIC (M. hyorhinis ATCC 23234) [µg/mL] | MIC (Strep dysgalaciae SPD1) [µg/mL] | MIC [4] [µg/mL] | MIC (M. bovis NCTC 10131) [µg/mL] | MIC [5] [µg/mL] | MIC (M. suipneumoniae LABER) [µg/mL] | MIC (S typhimurium S18) [µg/mL] | MIC [7] [µg/mL] | MIC (M. suipneumoniae HK(2)) [µg/mL] | other results
CC(=O)Nc1ccc(C(=O)CCCOC(=O)C=C(C)CC2OCC(CC3OC3C(C)C(C)O)C(O)C2O)cc1 (centres unmarked) [Example 9, 4-(4-Acetamidophenyl)-4-oxobutyl monate A] | 0.625 (≈ 1.14 µM) | 0.156 (≈ 0.285 µM) | 2.5 (≈ 4.57 µM) | > 80 | 0.1 (≈ 0.183 µM) | 2.5 (≈ 4.57 µM) | 0.1 (≈ 0.183 µM) | 0.5 (≈ 0.913 µM) | 0.05 (≈ 0.0913 µM) | > 80 | 20 (≈ 36.5 µM) | 0.25 (≈ 0.457 µM) | 0.156 (≈ 0.285 µM) | 1.25 (≈ 2.28 µM) | ≤ 0.01 | > 80 | 0.25 (≈ 0.457 µM) | > 80 | 0.25 (≈ 0.457 µM) | 0.5 (≈ 0.913 µM) | fraction unbound [6]: 0.138; MIC (Bord bronchiseptica BO8): > 80 µg/mL; MIC [8]: 0.5 µg/mL (≈ 0.913 µM); MIC (Strep agalactiae SPA1): 0.625 µg/mL (≈ 1.14 µM); MIC [9]: 0.5 µg/mL (≈ 0.913 µM); MIC (Past multocida PA2): 0.625 µg/mL (≈ 1.14 µM); MIC (M. suipneumoniae NB12): 0.5 µg/mL (≈ 0.913 µM); MIC (M. hyorhinis ATCC 25021): 0.25 µg/mL (≈ 0.457 µM); MIC (M. pneumoniae ATCC 15492): 0.5 µg/mL (≈ 0.913 µM); MIC (M. suipneumoniae Str. 11): 0.25 µg/mL (≈ 0.457 µM); MIC (M. suipneumoniae JF 435): 0.5 µg/mL (≈ 0.913 µM); MIC [10]: 2.5 µg/mL (≈ 4.57 µM); MIC (M. suipneumoniae MS 16): 0.25 µg/mL (≈ 0.457 µM); MIC (Staph aureus Oxford): 0.625 µg/mL (≈ 1.14 µM); MIC (S dublin S7): > 80 µg/mL; MIC (M. suipneumoniae UCD 1): 0.5 µg/mL (≈ 0.913 µM); MIC [11]: 20 µg/mL (≈ 36.5 µM); MIC (Bord bronchisptica BO9): 20 µg/mL (≈ 36.5 µM); MIC [12]: 0.5 µg/mL (≈ 0.913 µM)
CC(=CC(=O)OC1CCCC(=O)CCC1)CC1OCC(CC2OC2C(C)C(C)O)C(O)C1O (centres unmarked) [Example 10, Cyclooctan-5-onyl monate A] | 2.5 (≈ 5.34 µM) | 1.25 (≈ 2.67 µM) | 40 (≈ 85.4 µM) | > 80 | 0.25 (≈ 0.534 µM) | > 10 | 0.5 (≈ 1.07 µM) | 2.5 (≈ 5.34 µM) | 0.05 (≈ 0.107 µM) | > 80 | 40 (≈ 85.4 µM) | 1 (≈ 2.13 µM) | 5 (≈ 10.7 µM) | 2.5 (≈ 5.34 µM) | 0.025 (≈ 0.0534 µM) | 80 (≈ 171 µM) | 1 (≈ 2.13 µM) | > 80 | 1 (≈ 2.13 µM) | 2.5 (≈ 5.34 µM) | MIC (Bord bronchiseptica BO8): > 80 µg/mL; MIC [8]: 1 µg/mL (≈ 2.13 µM); MIC (Strep agalactiae SPA1): 10 µg/mL (≈ 21.3 µM); MIC [9]: 2.5 µg/mL (≈ 5.34 µM); MIC (Past multocida PA2): 1.25 µg/mL (≈ 2.67 µM); MIC (M. suipneumoniae NB12): 2.5 µg/mL (≈ 5.34 µM); MIC (M. hyorhinis ATCC 25021): 1 µg/mL (≈ 2.13 µM); MIC (M. pneumoniae ATCC 15492): 10 µg/mL (≈ 21.3 µM); MIC (M. suipneumoniae Str. 11): 1 µg/mL (≈ 2.13 µM); MIC (M. suipneumoniae JF 435): 2.5 µg/mL (≈ 5.34 µM); MIC [10]: 80 µg/mL (≈ 171 µM); MIC (M. suipneumoniae MS 16): 1 µg/mL (≈ 2.13 µM); MIC (Staph aureus Oxford): 2.5 µg/mL (≈ 5.34 µM); MIC (S dublin S7): > 80 µg/mL; MIC (M. suipneumoniae UCD 1): 1 µg/mL (≈ 2.13 µM); MIC [11]: 80 µg/mL (≈ 171 µM); MIC (Bord bronchisptica BO9): 80 µg/mL (≈ 171 µM); MIC [12]: 1 µg/mL (≈ 2.13 µM)
